The target of experiment [1] is FXa (Homo sapiens, UniProt P00742). Put plainly: Native gel electrophoresis (Ferguson analysis), C6PS bound to FXa. Further details: Human prothrombin and factor Xa; purchased Hematologic Technologies Inc. (Essex Junction, Vt.). It is filed as binding. The following applies: 400 μM C6PS. As for the experimental part:
(§1) Native Gel Electrophoresis. This method has been used to document the association of blood coagulation proteins in solution (Majumder, et al. (2002) supra; Majumder, et al. (2003) supra). A mixture of 1 nM FXa and 1 nM FVa was incubated at 37° C. for 2 minutes in the presence and absence of 400 μM C6PS and the two samples were run together with known marker proteins (270 kiloDalton-14.2 kiloDalton; SIGMA, St. Louis, Mo.) on five gels (5, 6, 6.5, 7, and 8% total acrylamide with bisacrylamide/acrylamide being 1/29 in all cases) in a BIORAD® MINI-PROTEAN® II minigel apparatus (BIORAD® Corp., Hercules, Calif.) and stained with colloidal Coomassie blue (Mitra, et al. (1994) supra). FXa and FVa, at these same concentrations and in the presence of 400 μM C6PS, were run separately as controls. Protein retardation coefficients, which depend to a good approximation only on the hydrodynamic size and shape of the protein, were determined for both the marker and unknown proteins (Ferguson (1964) Metabolism 13:985-1002). A log-log plot of the retardation coefficient against the molecular weights of the marker proteins produced a linear curve from which the molecular weight of the FVa•FXa complex was determined from its measured retardation coefficient (Bryan (1977) Anal. Biochem. 78(2):513-9). […]

Experiment [2] addresses T1, factor IXa (Homo sapiens, UniProt P00740).
T1 construct: intrinsic tryptophan fluorescence of factor IXa
Nature of the experiment: Binding of C6PS to Factor IXa detected by intrinsic fluorescence. The following applies: 0.20 μM factor IXa, 5 mM calcium, 22° C., single binding site model; read-out: stoichiometric Kd of C6PS binding to factor IXa. As to the method:
Integrated intrinsic fluorescence of 0.20 μM factor IXa in 50 mM Tris, 150 mM NaCl, 5 mM CaCl2, and 0.6% PEG, pH 7.5 was measured as a function of C6PS concentration at 22° C. to follow C6PS binding.

Experiment [3] deals with T2, FVa2 (Homo sapiens, UniProt P12259).
T2 construct: from tissue; host or cells: fresh frozen human plasma (American Red Cross Center, Durham, N.C.)
T2 sequence (P12259 29-737 limits assumed): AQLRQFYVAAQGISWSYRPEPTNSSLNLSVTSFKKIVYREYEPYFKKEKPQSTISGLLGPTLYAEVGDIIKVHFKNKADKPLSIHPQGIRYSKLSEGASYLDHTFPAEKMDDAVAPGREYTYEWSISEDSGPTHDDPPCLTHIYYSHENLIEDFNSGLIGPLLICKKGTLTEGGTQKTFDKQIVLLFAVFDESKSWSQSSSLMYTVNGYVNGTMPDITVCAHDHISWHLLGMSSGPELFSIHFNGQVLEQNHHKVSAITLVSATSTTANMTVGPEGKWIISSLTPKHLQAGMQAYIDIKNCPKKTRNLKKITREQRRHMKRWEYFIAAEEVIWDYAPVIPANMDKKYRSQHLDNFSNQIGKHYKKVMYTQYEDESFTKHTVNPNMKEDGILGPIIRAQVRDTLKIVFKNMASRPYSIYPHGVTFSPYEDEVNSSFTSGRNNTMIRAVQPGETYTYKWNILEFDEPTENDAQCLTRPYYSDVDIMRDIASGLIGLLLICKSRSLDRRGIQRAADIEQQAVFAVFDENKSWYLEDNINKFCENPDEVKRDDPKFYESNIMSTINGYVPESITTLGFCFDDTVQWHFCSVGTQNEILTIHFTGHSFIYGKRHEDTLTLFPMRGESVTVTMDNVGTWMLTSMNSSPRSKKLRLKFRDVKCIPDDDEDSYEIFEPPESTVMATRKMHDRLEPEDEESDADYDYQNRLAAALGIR
T2 sequence (P12259 1574-2224 limits assumed): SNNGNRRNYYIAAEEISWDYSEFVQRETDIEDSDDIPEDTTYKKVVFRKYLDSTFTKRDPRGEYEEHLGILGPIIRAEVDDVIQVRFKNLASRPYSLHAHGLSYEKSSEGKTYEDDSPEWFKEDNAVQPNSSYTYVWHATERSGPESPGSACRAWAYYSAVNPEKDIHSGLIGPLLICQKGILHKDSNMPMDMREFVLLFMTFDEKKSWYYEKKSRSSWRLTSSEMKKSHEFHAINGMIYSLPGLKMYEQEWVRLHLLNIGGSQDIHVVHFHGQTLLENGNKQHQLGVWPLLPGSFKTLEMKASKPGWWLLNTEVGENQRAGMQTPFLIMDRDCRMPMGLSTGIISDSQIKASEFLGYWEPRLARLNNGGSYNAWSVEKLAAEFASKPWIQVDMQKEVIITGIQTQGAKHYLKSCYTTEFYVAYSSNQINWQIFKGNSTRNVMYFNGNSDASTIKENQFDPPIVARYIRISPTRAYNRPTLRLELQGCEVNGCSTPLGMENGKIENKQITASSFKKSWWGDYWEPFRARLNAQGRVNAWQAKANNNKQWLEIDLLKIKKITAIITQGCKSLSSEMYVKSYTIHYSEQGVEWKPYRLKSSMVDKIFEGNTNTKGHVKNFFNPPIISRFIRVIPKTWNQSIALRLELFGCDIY
Nature of the experiment: Native gel electrophoresis (Ferguson analysis), C6PS bound to FVa2. It is filed as binding. The following applies: 400 μM C6PS. As for the experimental part: as §1

Each structure is given as a SMILES string.

T1 sequence (P00740 47-191 limits assumed): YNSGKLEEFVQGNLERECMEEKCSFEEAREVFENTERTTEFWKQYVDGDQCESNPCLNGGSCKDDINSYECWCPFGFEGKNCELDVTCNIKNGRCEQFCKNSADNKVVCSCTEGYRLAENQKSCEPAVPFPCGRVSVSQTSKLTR
T1 sequence (P00740 227-461 limits assumed): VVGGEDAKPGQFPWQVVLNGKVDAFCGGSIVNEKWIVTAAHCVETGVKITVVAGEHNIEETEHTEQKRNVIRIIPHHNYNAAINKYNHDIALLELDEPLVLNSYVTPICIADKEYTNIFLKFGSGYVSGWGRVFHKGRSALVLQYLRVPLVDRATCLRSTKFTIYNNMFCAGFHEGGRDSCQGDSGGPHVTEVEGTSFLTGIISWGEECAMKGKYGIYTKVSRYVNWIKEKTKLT
Sequence of FXa (P00742 41-179 limits assumed): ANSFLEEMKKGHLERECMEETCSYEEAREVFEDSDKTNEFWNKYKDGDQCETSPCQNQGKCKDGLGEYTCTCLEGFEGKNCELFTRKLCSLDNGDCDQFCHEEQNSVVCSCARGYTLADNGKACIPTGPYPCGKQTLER
Sequence of FXa (P00742 235-488 limits assumed): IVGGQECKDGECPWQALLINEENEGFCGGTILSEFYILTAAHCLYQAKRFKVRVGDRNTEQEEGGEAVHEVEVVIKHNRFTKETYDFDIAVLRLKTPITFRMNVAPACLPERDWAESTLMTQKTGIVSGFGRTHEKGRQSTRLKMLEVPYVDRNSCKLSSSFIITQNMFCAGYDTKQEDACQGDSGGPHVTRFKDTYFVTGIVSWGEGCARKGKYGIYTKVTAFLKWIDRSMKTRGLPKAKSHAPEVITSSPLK

Regarding `CCCCCC(=O)OC[C@H](COP(=O)(O)OC[C@H](N)C(=O)O)OC(=O)CCCCC` [C6PS, 1,2-dicaproyl-sn-glycero-3-phospho-L-serine], the “molecules of C6PS bound to FXa from molecular mass” value in experiment [1] was determined as 1.5 molecules. The Kd (in general, the free concentration of one partner at which half of the binding sites on the other are occupied at equilibrium, for simple one-to-one binding) in experiment [2] is around 1300 nM. Also, the “molecules of C6PS bound to FVa2 from molecular mass” value in experiment [3] amounted to 4.2 molecules.

Values taken from patent publication US7727736B2, “Soluble phospholipids for use in clotting factor assays” (The University of North Carolina at Chapel Hill, priority 2003, dated 2010).
